In patent US10472605B2, “Serum-free medium” (National University of Ireland, Galway, priority 2014, dated 2019):

Experiments:
MSC [1] = experiment: Growth/proliferation of MSC isolated in 10% FBS and re-attached under serum-free conditions; assay type: cell-based; conditions: fibronectin-coated; for MSC proliferation in serum free medium: over 3 passages, days 5, 10 and 15; for MSC proliferation in serum free medium containing FGF2 (5 ng/ml): 5 days
Method: Tissue culture flasks were pre-coated with FN (black), HA (blue), VN (red) or LN (green) and cells were allowed to adhere in serum-free conditions. Cell numbers were obtained after 5 days. Controls include serum-free plating without the presence of an ECM attachment factor and 10% FBS (grey). Results are representative of 3 biological replicates with n=2;
Cells were then cultured in the presence of growth factors and passaged every 5 days. Controls include serum free plating without growth factors and 10% FBS. Results are representative of 3 biological replicates with n=2;
Cells were then cultured in serum-free media containing FGF2 (5 ng/ml) in the presence of PGE2, cholesterol or lipoprotein for 5 days. Controls include serum free plating without growth factors 10% FBS (A). Cells were then cultured in the presence of lipoprotein and passaged every 5 days for 3 passages, controls include serum free plating without lipoprotein (B). Results are representative of 3 biological replicates with n=2;
(§1) Proliferation of the MSC attached in the presence of basic fibroblast growth factor (bFGF2, FGF2) was also assessed after 6 days.
Serum-free basal medium formulation was selected based on the literature describing low-serum cell culture of dental pulp stem cells (Tarle et al., 2010). The basal medium was composed of ITS (1%, BD), ascorbic acid (10 mM, Sigma Aldrich), dexamethasone (10 nM, Sigma Aldrich), human serum albumin (50 mg/ml, Sigma Aldrich), penicillin/streptomycin solution (1%, Gibco) and MEM-α (Gibco). The effect of a range of growth factors on MSC proliferation was then examined. MSC were attached on fibronectin-coated tissue culture plastic for 48 hours in serum-free basal medium.
The effect of FGF2/FGF4 and FGF7 (1, 5 and 10 ng/ml), PDGFaa/PDGFab and PDGFbb (1, 5 and 10 ng/ml) on MSC proliferation over 3 passages on days 5, 10 and 15 was examined.
To further enhance MSC viability and proliferation lipoprotein was added to the serum-free basal medium. MSC isolated in the presence of serum were seeded on fibronectin-coated tissue culture plastic in serum free medium containing FGF2. Initially a range of factors were screened to support MSC viability after trypsinisation; the effect of prostoglandin E2 (PGE2; 50 μg/ml), cholesterol (30 μg/ml) and lipoprotein (4 μg/ml) on MSC proliferation in serum free medium containing FGF2 (5 ng/ml) was examined.

MSC [2] = experiment: Serum-free MSC isolation from bone marrow (CFU and cell number at end of primary culture); assay type: cell-based
Method: The number of colony forming units (CFU; FIG. 6A) and cell number (FIG. 6B) was determined at the end of primary culture. An additional marrow was seeded on tissue culture plastic pre-coated with varying concentrations of fibronectin to determine optimal concentration of fibronectin required. The number of CFU (FIG. 6C) and cell yield (FIG. 6D) was determined at the end of primary culture. Controls include MSC isolation in the presence of 10% FBS or on non-coated tissue culture plastic;
The number of colony forming units (FIG. 7A) and cell number (FIG. 7B) was determined at the end of primary culture. Controls include MSC isolation in the presence of 10% FBS or on non-coated tissue culture plastic;
Initially MSC were isolated from three bone marrows to determine a suitable attachment substrate. […] A further bone marrow donor was then screened to determine the optimal fibronectin concentration; 6 μg/ml was selected as the favourable concentration (FIGS. 6C and 6D).
To examine the role of EGF in MSC isolation and attachment, 5 bone marrows were tested. MSC were isolated in the presence of FGF2 (5 ng/ml) on fibronectin coated plastic in the presence of EGF, or on tissue culture plastic in the presence of EGF.

[3] = test system: bone marrow mononuclear cells (MNCs); experiment: CFU-f assay, SF medium with various lipoproteins or fibronectin; assay type: cell-based, human; conditions: no fibronectin vs pre-coating vs fibronectin added to the medium; standard SF medium with LDL
Method: For the lipoprotein study, Serum Free (SF) media was prepared containing: no lipoprotein (No lipo), very low density lipoprotein (VLDL), low density lipoprotein (LDL) and high density lipoprotein (HDL). Other lipoproteins that exist are chylomicrons and intermediate density lipoprotein which were not assessed in this study as they were not commercially available at the time. MSCs were isolated from bone marrow based on plastic adherence in SF medium by plating 40×10^6 human bone marrow mononuclear cells/T-175 and culturing at 37° C., 5% CO2, 21% O2. Cells were subcultured once they had reached 80-90% confluence. MSCs were evaluated by assessing growth kinetics, tri-lineage differentiation and surface marker phenotype at the end of passage 3 (P3). For the lipoprotein study, SF medium was modified to contain one of the various lipoproteins at 80 ng/mL and these cells are seeded onto T175 flasks, which had been pre-coated with fibronectin. For the fibronectin study described, standard SF medium containing LDL (Standard Formulation) was used and cells were seeded onto T175 flasks without fibronectin, with fibronectin pre-coating or with fibronectin added to the medium itself. CFU-f assays were carried out by seeding bone marrow mononuclear cells (MNCs) at a density of 1×10^6 MNC/10 cm^2 in triplicate in 6-well plates. […]

MSCs = experiment: Growth kinetics of MSC cultures, lipoprotein and fibronectin study; assay type: cell-based, human; conditions: no fibronectin vs pre-coating vs fibronectin in the medium
Method: MSCs were isolated from bone marrow based on plastic adherence in SF medium by plating 40×10^6 human bone marrow mononuclear cells/T-175 and culturing at 37° C., 5% CO2, 21% O2. Cells were subcultured once they had reached 80-90% confluence. MSCs were evaluated by assessing growth kinetics, tri-lineage differentiation and surface marker phenotype at the end of passage 3 (P3). For the lipoprotein study, SF medium was modified to contain one of the various lipoproteins at 80 ng/mL and these cells are seeded onto T175 flasks, which had been pre-coated with fibronectin. […]
VLDL and LDL are involved in trafficking fats to cells in arteries which may indicate why these groups had cells which formed more disperse healthier looking CFU-fs. […] Applying these CFU-f numbers with cell yields at the end of each passage, growth curves were calculated. […]
The final aim of this work was to determine if fibronectin is required for isolation and establishment of MSC cultures in the proprietary serum-free medium. […] This was assessed by looking at CFU-f numbers and growth kinetics of cells isolated from bone marrow directly onto tissue culture plastic without fibronectin, onto tissue culture plastic pre-coated with fibronectin and finally with fibronectin incorporated into the medium itself.

MSC [4] = experiment: Attachment of MSC isolated in 10% FBS and re-attached under serum-free conditions; assay type: cell-based; conditions: EGF 10 ng/ml, serum free with FGF2, 3 passages
From the text: Tissue culture flasks were pre-coated with fibronectin (FN; black), hylauronic acid (HA; blue), vitronectin (VN; red) or laminin (LN; green) and cells were allowed to adhere in serum-free conditions. Controls include serum-free plating without the presence of an extra-cellular matrix (ECM) attachment factor and 10% FBS (grey). Results are representative of 3 biological replicates with n=2;
MSC were attached on tissue culture flasks in the presence of EGF (red) or on tissue culture plastic precoated with FN (purple) or in the presence of EGF on fibronectin coated plastic (green) and passaged every 3 days. Controls include serum free plating without the presence of an ECM attachment factor (blue) and 10% FBS (black). Results are representative of 3 biological replicates with n=2;
as §1

[5] = three bone marrows, attachment substrate vs vitronectin and hyaluronic acid

Molecule: FGF2: basic fibroblast growth factor
- MSC proliferation in serum free medium (MSC [1]; 5 ng/ml): increased MSC proliferation

Molecule: CCCCC[C@H](O)/C=C/[C@H]1[C@H](O)CC(=O)[C@@H]1C/C=C\CCCC(=O)O [PGE2, prostoglandin E2, reference compound]
- MSC proliferation in serum free medium containing FGF2 (5 ng/ml) (MSC [1]; 50 μg/ml): inhibitory effect

Molecule: PDGFab: growth factor PDGFab
- MSC proliferation in serum free medium (MSC [1]; 10 ng/ml): increased MSC proliferation

Molecule: fibronectin
- requirement for MSC attachment (MSC [2]; 5 bone marrows, FGF2 5 ng/ml, with EGF, coated vs uncoated plastic): required
- cell number at the end of the first passage (MSC [2]; [5]): greatest cell number
- colony forming units (MSC [2]; [5]): more colony forming units
- ability of CFU-fs to form / CFU-f numbers with or without fibronectin [3]: No difference
- growth kinetics of the MSC cultures with or without fibronectin (MSCs): unaffected

Molecule: EGF: epidermal growth factor
- MSC attachment over passaging (MSC [4]): increased MSC attachment

Molecule: CC(C)CCC[C@@H](C)[C@H]1CC[C@H]2[C@@H]3CC=C4C[C@@H](O)CC[C@]4(C)[C@H]3CC[C@]12C [cholesterol, reference compound]
- MSC proliferation in serum free medium containing FGF2 (5 ng/ml) (MSC [1]; 30 μg/ml): inhibitory effect
